Test results reported in the supplement of paper PMC12532568.

Tested on: Danio rerio larvae Tg(actc1b:ZsGreen-LC3), 3 dpf
Assay: LC3 puncta relative area vs vehicle (mean) (log2 fold change); higher = more autophagy
Details: treatment time 16 h
Method: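 Transgenic ZsGreen-LC3 zebrafish larvae (2 dpf) were treated for 16 h with natural bioactives at 10, 50, 100 or 250 µM. Skeletal-muscle LC3 puncta area was measured by high-content imaging with or without 4 h of 100 mM NH4Cl, normalised to vehicle, and reported as the mean log2 fold change over 4–21 larvae.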

SMILES	LC3 puncta (log2) (NH4Cl: + NH4Cl, 10 µM)	LC3 puncta (log2) (NH4Cl: + NH4Cl, 50 µM)	LC3 puncta (log2) (NH4Cl: + NH4Cl, 100 µM)	LC3 puncta (log2) (NH4Cl: + NH4Cl, 250 µM)	LC3 puncta (log2) (NH4Cl: - NH4Cl, 10 µM)	LC3 puncta (log2) (NH4Cl: - NH4Cl, 50 µM)	LC3 puncta (log2) (NH4Cl: - NH4Cl, 100 µM)	LC3 puncta (log2) (NH4Cl: - NH4Cl, 250 µM)
NC(=O)c1cccnc1 [Nicotinamide NAM]	0.821	0.328	0.663	0.606	-0.196	-0.178	0.12	-0.631
C/C=C\C=C\C(=O)O [(2E,4Z)-2,4-hexadienoic acid]	0.772	1.14	1.21	0.824	0.44	-0.191	1.17	-0.266
O=C(O)CCSCCC(=O)O [3,3'-thiodipropionic acid]	0.309	0.728	-0.445	0.629	0.0135	0.045	-0.0204	-0.062
O=c1oc2c(O)c(O)cc3c(=O)oc4c(O)c(O)cc1c4c23 [Ellagic acid]	0.705	0.347	0.0739	0.0325	0.154	-0.476	-0.223	0.00958
O=C(O)CC(O)(CC(=O)O)C(=O)O [Citric acid]	0.486	0.837	-0.0949	-0.815	-0.0291	-0.364	0.353	0.401
CC1=C(/C=C/C(C)=C/C=C/C(C)=C/CO)C(C)(C)CCC1 [Retinol]	1.19	0.124	0.0946		0.12	-0.269	0.255	0.596
C[C@@H](O)C(=O)O [(2R)-2-hydroxypropanoic acid]	0.532	0.237	0.304	0.589	0.00532	-0.27	0.144	-0.203
NC(=O)c1ccc[n+]([C@@H]2O[C@H](COP(=O)([O-])O)[C@@H](O)[C@H]2O)c1 [Nicotinamide mononucleotide]	1.01	0.775	0.349	0.19	-0.0834	-0.119	-0.518	-0.271
CC(O)CC(=O)O (stereo not given) [3-Hydroxybutyrate]	0.306	0.707	0.353	0.884	0.219	0.327	0.00999	0.0766
O=C1C[C@H](O)[C@@H](CO)O1 [2-deoxyribonolactone]	0.749	0.4	0.746	0.616	0.195	-0.131	0.251	-0.0832
CC(C)C[C@H](N)C(=O)O [L-Leucine]	0.433	0.183	0.128	-0.405	-0.25	-0.762	-0.689	-0.726
C[C@@H]1O[C@@H](OC[C@H]2O[C@@H](Oc3c(-c4ccc(O)c(O)c4)oc4cc(O)cc(O)c4c3=O)[C@H](O)[C@@H](O)[C@@H]2O)[C@H](O)[C@H](O)[C@H]1O [Rutin hydrate]	0.351	0.0277	0.401	0.491	-0.169	-0.116	0.291	0.18
